{"source": "patent US6183777A", "about": "(priority 1997, dated 2001)", "origin": "cited, not measured here", "key": {"[1]": {"settings": "in vivo"}, "cerebral acetyl choline": {"tested_on": "cerebral acetyl choline", "settings": "in particular in the cerebral cortex"}, "[2]": {"tested_on": "Alzheimer's Disease patients", "settings": "mild to medium AD"}}, "data": [{"smiles": "Cl.Nc1c2c(nc3ccccc13)CCCC2", "note": "[Tacrine, 1,2,3,4-tetrahydro-9-acridinamine hydrochloride]", "values": [{"measurement": "adverse effects", "setting": "[1]", "result": "gastro-intestinal side effects, such as nausea, vomiting, diarrhea, dyspepsia and loss of appetite; kinetic ataxia of voluntary muscles and myalgia; sweating and bradycardia induced by overexcitement of vagus nerues"}, {"measurement": "hepatoxicity", "setting": "[1]", "result": "may cause reversible hepatoxicity"}, {"measurement": "oral bioavailability, variation between individuals", "result": "may significantly vary in different individuals"}, {"measurement": "cerebral acetyl choline concentration", "setting": "cerebral acetyl choline", "result": "may increase cerebral acetyl choline concentration"}, {"measurement": "memory and recognition of patients", "setting": "[2]", "result": "can significantly improve the memory and recognition of patients"}]}]}
